{"source": "patent US11643421B2", "about": "“Process for the preparation of tricyclic PI3K inhibitor compounds and methods for using the same for the treatment of cancer” (priority 2015, dated 2023)", "key": {"Ron": {"target": "Ron (Homo sapiens, UniProt Q04912)", "sequence (Q04912 25-1400, species assumed)": "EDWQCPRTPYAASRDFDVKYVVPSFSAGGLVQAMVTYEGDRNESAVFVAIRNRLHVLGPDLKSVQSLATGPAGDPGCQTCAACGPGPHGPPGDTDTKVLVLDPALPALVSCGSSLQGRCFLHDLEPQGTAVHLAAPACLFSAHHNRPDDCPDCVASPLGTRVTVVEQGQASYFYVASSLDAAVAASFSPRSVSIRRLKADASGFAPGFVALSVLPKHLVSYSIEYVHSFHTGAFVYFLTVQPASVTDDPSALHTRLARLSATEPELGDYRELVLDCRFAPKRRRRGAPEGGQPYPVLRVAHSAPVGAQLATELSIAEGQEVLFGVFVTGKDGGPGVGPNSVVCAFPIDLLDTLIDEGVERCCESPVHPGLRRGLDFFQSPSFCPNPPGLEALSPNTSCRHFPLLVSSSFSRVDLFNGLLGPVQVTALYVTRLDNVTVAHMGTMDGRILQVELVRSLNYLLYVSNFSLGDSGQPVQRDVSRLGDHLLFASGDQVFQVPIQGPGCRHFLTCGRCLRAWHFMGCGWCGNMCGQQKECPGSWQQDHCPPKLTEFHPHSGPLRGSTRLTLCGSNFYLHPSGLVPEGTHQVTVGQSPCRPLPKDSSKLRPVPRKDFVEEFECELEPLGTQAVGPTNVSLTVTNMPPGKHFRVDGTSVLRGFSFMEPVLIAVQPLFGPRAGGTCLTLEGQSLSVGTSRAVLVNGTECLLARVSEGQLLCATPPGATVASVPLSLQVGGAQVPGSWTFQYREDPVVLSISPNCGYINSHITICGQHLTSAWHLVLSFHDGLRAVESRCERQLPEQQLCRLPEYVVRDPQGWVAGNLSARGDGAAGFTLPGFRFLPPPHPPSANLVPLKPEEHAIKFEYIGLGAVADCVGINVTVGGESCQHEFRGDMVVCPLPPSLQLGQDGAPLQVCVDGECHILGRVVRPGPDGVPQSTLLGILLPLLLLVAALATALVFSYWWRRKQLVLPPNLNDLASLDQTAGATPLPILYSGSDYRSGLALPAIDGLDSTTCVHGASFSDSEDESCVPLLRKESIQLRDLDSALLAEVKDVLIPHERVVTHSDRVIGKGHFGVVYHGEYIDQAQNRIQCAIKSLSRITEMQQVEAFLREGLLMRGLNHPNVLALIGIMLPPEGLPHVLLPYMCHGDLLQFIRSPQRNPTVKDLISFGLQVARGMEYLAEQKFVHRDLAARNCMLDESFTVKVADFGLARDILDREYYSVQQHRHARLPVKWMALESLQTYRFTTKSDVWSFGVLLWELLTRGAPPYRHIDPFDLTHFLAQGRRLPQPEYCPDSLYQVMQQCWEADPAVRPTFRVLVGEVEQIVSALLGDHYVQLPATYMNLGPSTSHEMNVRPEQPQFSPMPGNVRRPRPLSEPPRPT", "experiment": "biochemical", "conditions": "read-out: % inhib"}, "CLK3": {"target": "CLK3 (Homo sapiens, UniProt P49761)", "sequence (P49761 whole entry, species assumed)": "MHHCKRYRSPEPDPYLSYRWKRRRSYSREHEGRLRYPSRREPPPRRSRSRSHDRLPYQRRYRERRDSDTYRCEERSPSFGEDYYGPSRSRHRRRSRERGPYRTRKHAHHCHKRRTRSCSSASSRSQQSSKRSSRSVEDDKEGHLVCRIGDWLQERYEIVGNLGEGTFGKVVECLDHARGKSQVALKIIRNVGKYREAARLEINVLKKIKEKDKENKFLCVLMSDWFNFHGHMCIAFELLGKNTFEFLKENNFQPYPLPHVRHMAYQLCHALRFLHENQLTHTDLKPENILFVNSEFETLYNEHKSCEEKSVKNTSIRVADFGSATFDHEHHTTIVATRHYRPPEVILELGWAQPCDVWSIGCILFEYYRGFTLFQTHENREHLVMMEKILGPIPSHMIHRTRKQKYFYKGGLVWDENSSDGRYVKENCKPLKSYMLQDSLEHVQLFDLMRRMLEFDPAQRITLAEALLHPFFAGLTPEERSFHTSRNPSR", "experiment": "biochemical", "conditions": "read-out: % inhib"}, "MYLK2 (skMLCK)": {"target": "MYLK2 (skMLCK) (Homo sapiens, UniProt Q9H1R3)", "experiment": "biochemical", "conditions": "read-out: % inhib"}, "mouse P-gp (mdr1a)": {"target": "mouse P-gp (mdr1a) (Mus musculus, UniProt P21447)", "experiment": "Transport assay in Mdr1a-LLC-PK1 cell monolayers", "assay_type": "in vitro ADME", "conditions": "Mdr1a-LLC-PK, 2-hour incubation", "protocol": "MDR1-MDCKI cells were licensed from the NCI (National Cancer Institute, Bethesda, Md.) and Bcrp1-MDCKII, BCRP-MDCKII and Mdr1a-LLC-PK1 cells were obtained from the Netherlands Cancer Institute (Amsterdam. The Netherlands). […] The compound was dissolved in transport buffer consisting of Hank's balanced salt solution (HBSS) with 10 mM HEPES (Invitrogen Corporation, Grand Island, N.Y.). Lucifer Yellow (Sigma-Aldrich, St. Louis, Mo.) was used as the paracellular and monolayer integrity marker. […] The efflux ratio (ER) was calculated (Papp, B-A/Papp, A-B)."}, "pS6": {"tested_on": "pS6", "experiment": "PI3K pathway modulation in GS2 tumors, western blot", "assay_type": "in vivo, mice", "conditions": "15 mg/kg PO daily 4 weeks"}, "p70S6K": {"target": "p70S6K (Homo sapiens, UniProt P23443)", "sequence (P23443 whole entry)": "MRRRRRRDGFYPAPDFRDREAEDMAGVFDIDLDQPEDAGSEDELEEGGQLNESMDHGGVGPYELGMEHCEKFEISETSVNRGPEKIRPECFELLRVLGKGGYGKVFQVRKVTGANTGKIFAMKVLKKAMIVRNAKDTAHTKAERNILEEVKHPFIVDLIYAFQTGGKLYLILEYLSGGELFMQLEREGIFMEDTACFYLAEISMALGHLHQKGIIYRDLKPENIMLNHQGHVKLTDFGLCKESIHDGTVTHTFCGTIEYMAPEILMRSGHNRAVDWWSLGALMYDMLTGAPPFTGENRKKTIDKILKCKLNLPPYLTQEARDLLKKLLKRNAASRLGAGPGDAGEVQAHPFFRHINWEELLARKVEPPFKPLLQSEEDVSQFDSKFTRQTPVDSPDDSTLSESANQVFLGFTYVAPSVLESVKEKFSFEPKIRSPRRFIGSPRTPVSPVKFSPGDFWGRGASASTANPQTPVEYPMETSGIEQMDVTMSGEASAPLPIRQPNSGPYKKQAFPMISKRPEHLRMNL", "experiment": "biochemical", "conditions": "read-out: % inhib"}, "PI4Ka": {"target": "PI4Ka (Homo sapiens, UniProt P42356)", "experiment": "biochemical", "conditions": "read-out: % inhib"}, "MSK2": {"target": "MSK2 (Homo sapiens, UniProt O75676)", "sequence (O75676 whole entry, species assumed)": "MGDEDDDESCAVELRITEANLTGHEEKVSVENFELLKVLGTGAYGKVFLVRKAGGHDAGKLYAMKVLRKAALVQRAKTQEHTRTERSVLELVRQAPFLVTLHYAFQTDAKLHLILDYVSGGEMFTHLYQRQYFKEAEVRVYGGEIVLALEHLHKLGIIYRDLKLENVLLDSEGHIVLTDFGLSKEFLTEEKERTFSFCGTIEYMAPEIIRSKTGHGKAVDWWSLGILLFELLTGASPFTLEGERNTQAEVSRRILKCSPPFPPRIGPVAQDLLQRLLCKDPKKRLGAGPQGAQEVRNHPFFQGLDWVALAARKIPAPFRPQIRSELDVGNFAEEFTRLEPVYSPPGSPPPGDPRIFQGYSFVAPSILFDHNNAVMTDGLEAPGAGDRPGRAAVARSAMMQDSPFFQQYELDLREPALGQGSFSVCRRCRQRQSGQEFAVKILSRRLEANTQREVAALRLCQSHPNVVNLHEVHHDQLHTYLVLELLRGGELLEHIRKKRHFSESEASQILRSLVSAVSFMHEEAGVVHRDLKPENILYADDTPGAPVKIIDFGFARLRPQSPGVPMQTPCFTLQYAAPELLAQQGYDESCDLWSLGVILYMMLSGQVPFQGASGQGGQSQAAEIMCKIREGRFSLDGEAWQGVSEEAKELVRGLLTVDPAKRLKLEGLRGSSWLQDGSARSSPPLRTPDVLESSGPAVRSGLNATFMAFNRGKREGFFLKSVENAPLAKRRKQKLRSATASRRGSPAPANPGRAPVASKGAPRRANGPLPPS", "experiment": "biochemical", "conditions": "read-out: % inhib"}, "pAKT": {"tested_on": "pAKT", "experiment": "Modulation of pAkt in the brain of healthy mice", "assay_type": "in vivo, Female CD-1 mice", "conditions": "single oral dose 25 mg/kg", "protocol": "Inhibition of the PI3K pathway was assessed in the brain of healthy mice through measurement of two markers, pAkt and pS6. […] Brains and plasma were collected at 1 and 6 hours post-dose, from 3 animals at each time point. […] For PD analysis, cell extraction buffer (Invitrogen, Camarillo, Calif.) containing 10 mM Tris pH 7.4, 100 mM NaCl, 1 mM EDTA, 1 mM EGTA, 1 mM NaF, 20 mM Na4P2O7, 2 mM Na3VO4, 1% Triton X-100, 10% glycerol, 0.1% SDS, and 0.5% deoxycholate was supplemented with phosphatase, protease inhibitors (Sigma, St. Louis, Mo.) and 1 mM PMSF and added to frozen brain biopsies. Brains were homogenized with a small pestle (Konte Glass Company, Vineland, N.J.), sonicated briefly on ice, and centrifuged at 20,000 g for 20 minutes at 4° C. Protein concentration was determined using BCA protein assay (Pierce, Rockford, Ill.). Proteins were separated by electrophoresis and transferred to NuPage nitrocellulose membranes (Invitrogen, Camarillo, Calif.). Licor Odyssey Infrared detection system (Licor, Lincoln, Nebr.) was used to assess and quantify protein expression. […] The differences in marker levels between the treated and control mice were evaluated using the Student's t-test (Prism 5, GraphPad)."}, "Fyn": {"target": "Fyn (Homo sapiens, UniProt P06241)", "experiment": "biochemical", "conditions": "read-out: % inhib"}, "MEK1": {"target": "MEK1 (Homo sapiens, UniProt Q02750)", "experiment": "biochemical", "conditions": "read-out: % inhib"}, "CDK9/cyclinT1": {"target": "CDK9/cyclinT1 (Homo sapiens, UniProt P50750)", "experiment": "biochemical", "conditions": "read-out: % inhib"}, "CDK5/p25": {"target": "CDK5/p25 (Homo sapiens, UniProt Q00535)", "experiment": "biochemical", "conditions": "read-out: % inhib"}, "Axl": {"target": "Axl (Homo sapiens, UniProt P30530)", "sequence (P30530 26-894, species assumed)": "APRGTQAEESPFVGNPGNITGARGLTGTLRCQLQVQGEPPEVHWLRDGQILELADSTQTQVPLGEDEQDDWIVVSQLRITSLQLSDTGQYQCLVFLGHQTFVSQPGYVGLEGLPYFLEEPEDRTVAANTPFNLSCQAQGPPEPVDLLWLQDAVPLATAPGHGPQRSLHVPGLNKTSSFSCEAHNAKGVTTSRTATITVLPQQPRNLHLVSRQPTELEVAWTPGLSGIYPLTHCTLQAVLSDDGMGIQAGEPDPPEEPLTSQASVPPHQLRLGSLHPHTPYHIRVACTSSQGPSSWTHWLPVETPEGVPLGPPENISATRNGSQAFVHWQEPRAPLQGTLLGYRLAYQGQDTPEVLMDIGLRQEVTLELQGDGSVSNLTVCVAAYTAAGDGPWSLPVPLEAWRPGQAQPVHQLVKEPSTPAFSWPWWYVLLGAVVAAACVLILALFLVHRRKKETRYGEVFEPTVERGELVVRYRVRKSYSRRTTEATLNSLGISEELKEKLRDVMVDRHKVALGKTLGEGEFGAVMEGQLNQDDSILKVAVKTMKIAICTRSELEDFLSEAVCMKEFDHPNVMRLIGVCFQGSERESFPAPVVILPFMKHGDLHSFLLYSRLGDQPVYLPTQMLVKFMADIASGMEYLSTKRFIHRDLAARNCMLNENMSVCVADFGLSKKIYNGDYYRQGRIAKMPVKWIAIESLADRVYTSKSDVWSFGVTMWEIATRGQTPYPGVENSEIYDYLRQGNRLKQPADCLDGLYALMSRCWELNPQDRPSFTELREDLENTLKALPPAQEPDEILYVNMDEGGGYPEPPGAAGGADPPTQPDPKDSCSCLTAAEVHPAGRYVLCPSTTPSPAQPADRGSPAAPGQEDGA", "experiment": "biochemical", "conditions": "read-out: % inhib"}, "InsR": {"target": "InsR (Homo sapiens, UniProt P06213)", "experiment": "biochemical", "conditions": "read-out: % inhib"}, "EphA4": {"target": "EphA4 (Homo sapiens, UniProt P54764)", "sequence (P54764 20-986, species assumed)": "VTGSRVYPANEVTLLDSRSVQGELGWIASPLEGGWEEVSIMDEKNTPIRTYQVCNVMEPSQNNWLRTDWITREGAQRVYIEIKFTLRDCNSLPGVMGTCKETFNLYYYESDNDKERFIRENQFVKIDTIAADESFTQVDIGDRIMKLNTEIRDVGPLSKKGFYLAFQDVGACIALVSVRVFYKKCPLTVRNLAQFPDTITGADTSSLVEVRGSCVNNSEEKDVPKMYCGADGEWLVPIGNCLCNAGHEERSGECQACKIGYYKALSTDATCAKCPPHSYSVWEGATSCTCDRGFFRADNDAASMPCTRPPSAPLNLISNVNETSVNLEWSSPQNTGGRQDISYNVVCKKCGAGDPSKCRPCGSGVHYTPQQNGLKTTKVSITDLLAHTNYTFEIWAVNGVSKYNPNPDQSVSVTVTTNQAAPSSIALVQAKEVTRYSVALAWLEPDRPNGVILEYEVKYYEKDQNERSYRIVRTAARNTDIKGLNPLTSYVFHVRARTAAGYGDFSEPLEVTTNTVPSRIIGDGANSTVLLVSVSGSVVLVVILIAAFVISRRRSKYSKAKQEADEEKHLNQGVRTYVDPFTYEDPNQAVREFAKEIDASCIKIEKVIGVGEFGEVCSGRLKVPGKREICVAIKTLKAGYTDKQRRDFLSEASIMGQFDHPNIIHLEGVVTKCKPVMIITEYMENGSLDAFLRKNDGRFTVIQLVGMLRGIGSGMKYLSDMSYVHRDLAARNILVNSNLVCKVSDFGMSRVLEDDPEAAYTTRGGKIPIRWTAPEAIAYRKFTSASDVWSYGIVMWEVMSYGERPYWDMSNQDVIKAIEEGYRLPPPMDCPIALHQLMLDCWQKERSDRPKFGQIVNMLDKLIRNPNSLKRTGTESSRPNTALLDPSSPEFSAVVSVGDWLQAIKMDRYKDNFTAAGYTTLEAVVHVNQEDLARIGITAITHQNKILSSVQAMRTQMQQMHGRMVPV", "experiment": "biochemical", "conditions": "read-out: % inhib"}, "high-grade gliomas": {"tested_on": "high-grade gliomas", "experiment": "Phase I study, best overall response (RANO)", "assay_type": "in vivo, human", "conditions": "evaluable patients", "protocol": "Tumor response was determined by either an assessment of FDG-PET or by Response Assessment in Neuro-Oncology (RANO).\nTumor response under the RANO guidelines was done generally in accordance with the Wen method (Wen P Y, Macdonald D R, Reardon D A, et al. “Updated response assessment criteria for high-grade gliomas: Response Assessment in Neuro-Oncology Working Group”, J Clin Oncol 2010; 28:1963-72) where the disease is categorized as “complete response”, “partial response”, “stable disease” and “progression”. Among other factors, a complete response required all of the following: complete disappearance of all enhancing measurable and non-measurable disease sustained for at least 4 weeks; no new lesions; and stable or improved non-enhancing (T2/FLAIR) lesions. A partial response required, among other factors, ≥50% decrease, compared with baseline, in the sum of the products of the perpendicular diameters of all measurable enhancing lesions (such as measured by MRI) sustained for at least 4 weeks; no progression of non-measurable disease; and no new lesions."}, "[1]": {"experiment": "In vivo pharmacokinetics IV and PO", "parameters": "species or system Male Sprague-Dawley rats", "conditions": "Rat", "protocol": "The hepatocyte stability of compound IIIat was evaluated across preclinical species. Certain in vivo pharmacokinetic parameters were also evaluated. […] Male Sprague-Dawley rats, female CD-1 mice, male cynomolgus monkeys and beagle dogs were dosed intravenously with 1 mg/kg of compound IIIat prepared in 60% PEG400/10% Ethanol. Compound IIIat was administered orally (PO) at the indicated dose in 0.5% methylcellulose with 0.2% Tween 80 (MCT)."}, "[2]": {"experiment": "Brain binding, dialysis of brain homogenate", "assay_type": "in vitro ADME", "conditions": "mouse brain homogenate, n=3, read-out: free fraction in brain tissues", "protocol": "Following dialysis, tissues and buffer samples were analyzed as described for the plasma protein binding studies."}}}
{"smiles": "CC1(C)OCCn2c1nc1c(N3CCOCC3)nc(-c3cnc(N)nc3)nc12", "note": "[GDC-0084, 5-(6,6-dimethyl-4-morpholino-8,9-dihydro-6H-[1,4]oxazino[3,4-e]purin-2-yl)pyrimidin-2-amine]", "values": [{"measurement": "inhibition at 1 µM", "setting": "Ron", "value": 8, "unit": "%"}, {"measurement": "inhibition at 1 µM", "setting": "CLK3", "value": 7, "unit": "%"}, {"measurement": "inhibition at 1 µM", "setting": "MYLK2 (skMLCK)", "value": 3, "unit": "%"}, {"measurement": "Papp B→A at 2 h, 5 μM", "setting": "mouse P-gp (mdr1a)", "value": "19.4 ± 1.3", "unit": "×10⁻⁶ cm/s"}, {"measurement": "Suppression of pS6 in GS2 tumors", "setting": "pS6; 2 hours after final administration", "value": 35, "unit": "%"}, {"measurement": "pS6 level in GS2 tumors", "setting": "pS6; 8 hours post-dose", "value": "back to baseline levels"}, {"measurement": "inhibition at 1 µM", "setting": "p70S6K", "value": 6, "unit": "%"}, {"measurement": "inhibition at 1 µM", "setting": "PI4Ka", "value": 7, "unit": "%"}, {"measurement": "inhibition at 1 µM", "setting": "MSK2", "value": 0.6, "unit": "%"}, {"measurement": "Suppression of pAkt in brain", "setting": "pAKT; 1 hour post dose", "value": 90, "unit": "%"}, {"measurement": "Suppression of pAkt in brain", "setting": "pAKT; 6 hours after dosing", "value": "greater than 70%"}, {"measurement": "inhibition at 1 µM", "setting": "Fyn", "value": 9, "unit": "%"}, {"measurement": "inhibition at 1 µM", "setting": "MEK1", "value": -0.1, "unit": "%"}, {"measurement": "inhibition at 1 µM", "setting": "CDK9/cyclinT1", "value": -0.9, "unit": "%"}, {"measurement": "inhibition at 1 µM", "setting": "CDK5/p25", "value": 0.3, "unit": "%"}, {"measurement": "inhibition at 1 µM", "setting": "Axl", "value": 6, "unit": "%"}, {"measurement": "inhibition at 1 µM", "setting": "InsR", "value": 6, "unit": "%"}, {"measurement": "inhibition at 1 µM", "setting": "EphA4", "value": 3, "unit": "%"}, {"measurement": "best overall response of progressive disease, patients", "setting": "high-grade gliomas", "value": 26, "unit": "patients"}, {"measurement": "best overall response of progressive disease, percent", "setting": "high-grade gliomas", "value": 55.3, "unit": "%"}, {"measurement": "best overall response stable disease, patients", "setting": "high-grade gliomas", "value": 19, "unit": "patients"}, {"measurement": "best overall response stable disease, percent", "setting": "high-grade gliomas", "value": 40.4, "unit": "%"}, {"measurement": "In vivo Cl", "setting": "[1]; IV 1 mg/kg", "value": 28, "unit": "mL/min/kg"}, {"measurement": "Cmax", "setting": "[1]; PO 5 mg/kg in MCT", "value": 1.1, "unit": "μm"}, {"measurement": "F %", "setting": "[1]; PO 5 mg/kg in MCT", "value": 77, "unit": "%"}, {"measurement": "fraction unbound at 4 h, 5 µM", "setting": "[2]", "value": 0.067}]}
